Source: patent publication US6479493B1, “Methods for treatment of type I diabetes” (Cell Pathways, Inc., priority 2001, dated 2002)
Like-named read-outs stand apart in the source and are kept apart here.

Tests used:
[1] = target: T1, cGMP binding sites of the GST-cGB-PDE5 fusion protein (Homo sapiens, UniProt O76074); test: cGMP binding assay with GST-cGB-PDE5 fusion protein; conditions: for competition with cGMP binding at high concentration: 100 μM compound versus cGMP 2 μM
T1 construct: made in house; host or cells: E. coli BL21 (DE3)
Excerpt: RT-PCR method is used to obtain the cGB domain of PDE5 with forward and reverse primers designed from bovine PDE5A cDNA sequence (McAllister-Lucas L. M. et al, J. Biol. Chem. 268, 22863-22873, 1993) and the selection among PDE 1-10 families. 5′-3′, Inc. kits for total RNA followed by oligo (dT) column purification of mRNA are used with HT-29 cells. […] It is then cloned into pGEX-5X-3 glutathione-S-ransferase (GST) fusion vector (Pharmacia Biotech )with tac promoter, and EcoRI and XhoI cut sites. The fusion vector is then transfected into E. Coli BL21 (DE3) bacteria (Invitrogen). The transfected BL21 bacteria is grown to log phase, and then IPTG is added as an inducer. The induction is carried at 20° C. for 24 hrs. The bacteria are harvested and lysed. The soluble cell lysate is incubated with GSH conjugated Sepharose 4B (GSH-Sepharose 4B). The GST-cGB-pDE5 fusion protein can bind to the GSH-Sepharose beads, and the other proteins are washed off from beads with excessive cold PBS.
Then, the mixture is transferred to Brandel MB-24 cell harvester with GF/B as the filter membrane followed by 2 washes with 10 mL of cold 5 mM potassium buffer(pH 6.8). The membranes are then cut out and transferred to scintillation vials followed by the addition of 1 mL of H2O and 6 mL of Ready Safe™ liquid scintillation cocktail to each vial. The vials are counted on a Beckman LS 6500 scintillation counter.
The quenching by filter membrane or other debris are also calibrated.

U937 cells = test: apoptosis induction of U937 cells, active caspase 3 indirect immunofluorescence; type: cell-based; conditions: 24 hours
Method: U937 cells (from ATCC Rockville, Md.) were grown in RPMI media supplemented with 5% FCS, glutamine, antibiotic/antimycotic and sodium pyruvate. Total RNA was isolated from two U937 cultures, one treated with 5 nM TPA for 48 hours and one grown in normal media as listed above, using the Rouche High Pure RNA Isolation Kit (cat #1 828 665) as per manufacturers protocol. cDNA was then synthesized from the total RNA using GibcoBRL SuperscriptII (Cat #18064-022) reverse transcriptase as per manufacturers protocol. The resulting cDNA was used as a template for RT-PCR reactions using primer sets specific for PDE2 (forward: […], reverse: […]) or PDE5 (forward: […], reverse: […]). mRNA for PDE2 and 5 were both present in the untreated U937 cells. Upon treatment with TPA, the relative amounts of PDE2 mRNA increased 5 fold. Therefore, U937 cells treated with TPA and driven to differentiate into an activated macrophage like state have elevated levels of PDE2 mRNA (see FIG. 1).
The presence of PDE2 and PDE5 protein within U937 cells was confirmed by indirect immunofluorescence (IIF). U937 cells were cultured as above. Two U937 cultures, one grown in the presence of 5 nM TPA for 48 hours and one grown in normal media were processed. All cultures were collected by centrifugation (Shandon Cytospin, 2 minutes @600 rpm) onto poly-L lysine-coated slides and immediately fixed in fresh 3% paraformaldehyde buffered in PBS for 10 minutes. Adherent cultures were grown on coverslips and fixed as above. Cells were permeablized in 0.2% Triton-100 for 2 minutes. Slides were blocked with blocking buffer (5% goat serum, 5% glycerol, 1% gelatin from cold water fish skin and 0.04% NaN3 in PBS) for 1 hour at room temperature.
Slides were then incubated for 1 hour at 37° C. in a humid chamber with antibodies specific for PDE2 (generated in a sheep against the peptide […]) or PDE5 (generated in sheep against the peptide […]). […]
The level of apoptosis in U937 cells was quantified by scoring 500 consecutive cells for the presence of active caspase 3. […]

native bovine PDE5 = native bovine PDE5 (Bos taurus, UniProt Q28156); conditions: read-out: Kd of cGMP binding, native bovine PDE5; cited from earlier work

Row | Compound | competition with cGMP in binding to the cGMP binding sites of GST-cGB-PDE5 ([1]; 3H-cGMP 2 μM, 22° C., 1 hour) | other results
1 | CCCCOC1C2OP(=O)(O)OCC2OC1n1cnc2c(N)ncnc21 (stereo not drawn) [2′-O-butyl-cAMP] | did not compete with cGMP in binding | 
2 | COc1ccc(C2CNC(=O)C2)cc1OC1CCCC1 (stereo not drawn) [rolipram] |  | levels of apoptosis (active caspase 3) (U937 cells; 0.5 uM): No increase in the levels of apoptosis compared to normal background was observed
3 | CCCc1nn(C)c2c(=O)[nH]c(-c3cc(S(=O)(=O)N4CCN(C)CC4)ccc3OCC)nc12 [sildenafil] |  | levels of apoptosis (active caspase 3) (U937 cells; 0.3 nM): No increase in the levels of apoptosis compared to normal background was observed
4 | CCCCOC1C2OP(=O)(O)OCC2OC1n1cnc2c(=O)[nH]c(N)nc21 (stereo not drawn) [2′-O-butyl-cGMP] | did not compete with cGMP in binding | 
5 | CSc1ccc(/C=C2/C(C)=C(CC(=O)O)c3cc(F)ccc32)cc1 [Sulindac sulfide] | None of the PDE5 inhibitors showed any competition with cGMP in binding | 
6 | CCCOc1ccccc1-c1nc2nn[nH]c2c(=O)[nH]1 [zaprinast] | None of the PDE5 inhibitors showed any competition with cGMP in binding | 
7 | CC1=C(CC(=O)O)c2cc(F)ccc2/C1=C\c1ccc(S(C)(=O)=O)cc1 [exisulind] | None of the PDE5 inhibitors showed any competition with cGMP in binding | 
8 | Nc1ccn([C@@H]2O[C@@H]3COP(=O)(O)O[C@H]3[C@H]2O)c(=O)n1 [cCMP] | did not compete with cGMP in binding | 
9 | O=c1[nH]cnc2c1ncn2[C@@H]1O[C@@H]2COP(=O)(O)O[C@H]2[C@H]1O [Cyclic IMP] |  | competition with cGMP binding at high concentration [1]: can partially compete with cGMP
10 | O=C([O-])C1CCN(c2nc(NCc3ccc4c(c3)OCO4)c3cc(Cl)ccc3n2)CC1.[Na+] [Example E4021] | None of the PDE5 inhibitors showed any competition with cGMP in binding | 
11 | Nc1nc2c(nc(Br)n2[C@@H]2O[C@@H]3COP(=O)(O)O[C@H]3[C@H]2O)c(=O)[nH]1 [Example 8-bromo-cGMP, 8-bromo-cGMP] |  | competition with cGMP binding at high concentration [1]: can partially compete with cGMP
12 | Nc1nc2c(ncn2[C@@H]2O[C@@H]3COP(=O)(O)O[C@H]3[C@H]2O)c(=O)[nH]1 [cGMP, cyclic 3′,5′-guanosine monophosphate] |  | Kd (native bovine PDE5): 1300 nM; Kd ([1]; read-out: Kd of cGMP binding to GST-cGB-PDE5 fusion protein, two cGMP binding sites): 1600 ± 200 nM
13 | O=c1ccn([C@@H]2O[C@@H]3COP(=O)(O)O[C@H]3[C@H]2O)c(=O)[nH]1 [cUMP, cyclic UMP] | did not compete with cGMP in binding | 
14 | Nc1ncnc2c1ncn2[C@@H]1O[C@@H]2COP(=O)(O)O[C@H]2[C@H]1O [Cyclic AMP] |  | competition with cGMP in binding to the cGMP binding sites of GST-cGB-PDE5 [1]: did not compete with cGMP in binding
